These results are taken from patent US20100022531A1, “NOVEL COMPOUNDS AS P2X7 MODULATORS AND USES THEREOF” (RENOVIS, INC., priority 2005, published 2010).

The target of the first assay is T1, P2X7 receptor (Homo sapiens, UniProt Q99572).
T1 construct: host or cells: THP-1 cells differentiated with LPS and IFN-γ
T1 sequence (Q99572 1-595): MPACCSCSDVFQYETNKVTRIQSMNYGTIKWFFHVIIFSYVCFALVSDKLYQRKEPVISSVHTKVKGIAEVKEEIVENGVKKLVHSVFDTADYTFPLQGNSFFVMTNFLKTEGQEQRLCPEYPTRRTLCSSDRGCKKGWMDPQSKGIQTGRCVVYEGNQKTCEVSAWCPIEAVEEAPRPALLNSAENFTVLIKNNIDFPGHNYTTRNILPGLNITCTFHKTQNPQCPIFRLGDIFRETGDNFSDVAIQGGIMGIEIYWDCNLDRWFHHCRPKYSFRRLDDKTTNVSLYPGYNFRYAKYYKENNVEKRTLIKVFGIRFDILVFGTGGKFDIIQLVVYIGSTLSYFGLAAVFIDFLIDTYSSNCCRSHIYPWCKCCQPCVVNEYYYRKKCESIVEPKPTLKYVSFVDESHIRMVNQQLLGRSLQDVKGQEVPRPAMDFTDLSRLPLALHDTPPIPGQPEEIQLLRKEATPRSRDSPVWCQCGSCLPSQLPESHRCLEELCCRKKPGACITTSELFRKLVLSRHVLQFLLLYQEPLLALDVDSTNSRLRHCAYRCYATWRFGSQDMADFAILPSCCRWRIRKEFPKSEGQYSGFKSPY
Description: Alternate method for IL-1β release assay (differentiated THP-1 cells, BzATP-stimulated, ELISA). Type of assay: cell-based. The following applies: P2X7; 0.1 μM compound (symbols + to ++++); read-out: IL-1β % inhib @ 0.1 μM. The gist of the method:
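After 16 h differentiation with 100 ng/mL LPS and 100 ng/mL IFN-γ plus a further 2 h LPS priming, THP-1 cells were pretreated 30 min with compound, then stimulated with 250 uM BzATP (final) for 45 min. Supernatant IL-1β measured by ELISA; percent inhibition from background-adjusted levels versus untreated cells.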
(An ELISA detects its analyte on a solid surface through an enzyme-linked reagent.)
`O=C(OCCSCc1ccccc1)N1CCc2c(ncnc2NCC23CC4CC(CC(C4)C2)C3)C1` [Compound 334]: the inhibition at 0.1 µM fell in the range of 25 to 50%.

`O=C(SCc1ccc(F)cc1)N1CCc2c(ncnc2NCC23CC4CC(CC(C4)C2)C3)C1` [Compound 335]: the inhibition at 0.1 µM lay in the range of 0 to 25%.

For the compound `O=C(OCc1ccco1)N1CCc2c(ncnc2NCC23CC4CC(CC(C4)C2)C3)C1` [Compound 336], the inhibition at 0.1 µM is more than 75%.

As to `O=C(OCc1ccccc1F)N1CCc2c(ncnc2NCC23CC4CC(CC(C4)C2)C3)C1` [Compound 337], the inhibition at 0.1 µM was in the range of 0 to 25%.

For `O=C(OCc1c(F)cccc1F)N1CCc2c(ncnc2NCC23CC4CC(CC(C4)C2)C3)C1` [Compound 338], the inhibition at 0.1 µM was more than 75%.

For the compound `O=C(OCc1ccccc1Cl)N1CCc2c(ncnc2NCC23CC4CC(CC(C4)C2)C3)C1` [Compound 339], the inhibition at 0.1 µM is more than 75%.

Consider `O=C(OCc1ccoc1)N1CCc2c(ncnc2NCC23CC4CC(CC(C4)C2)C3)C1` [Compound 340], for which the inhibition at 0.1 µM fell in the range of 50 to 75%.

As to `O=C(OCC1CCCO1)N1CCc2c(ncnc2NCC23CC4CC(CC(C4)C2)C3)C1` (stereo not drawn) [Compound 341], the inhibition at 0.1 µM was 50 to 75%.

`O=C(OCc1ccccn1)N1CCc2c(ncnc2NCC23CC4CC(CC(C4)C2)C3)C1` [Compound 342]: the inhibition at 0.1 µM lay in the range of 0 to 25%.

As for `O=C(OCc1ccncc1)N1CCc2c(ncnc2NCC23CC4CC(CC(C4)C2)C3)C1` [Compound 343], the inhibition at 0.1 µM is 0 to 25%.

On to `O=C(SCc1c(F)cccc1Cl)N1CCc2c(ncnc2NCC23CC4CC(CC(C4)C2)C3)C1` [Compound 344], for which the inhibition at 0.1 µM was 25 to 50%.

In the case of `Cc1nn(-c2ccccc2)nc1COC(=O)N1CCc2c(ncnc2NCC23CC4CC(CC(C4)C2)C3)C1` [Compound 345], the inhibition at 0.1 µM was in the range of 25 to 50%.

In the case of `O=C(OCc1ncoc1-c1ccccc1)N1CCc2c(ncnc2NCC23CC4CC(CC(C4)C2)C3)C1` [Compound 346], the inhibition at 0.1 µM was 0 to 25%.

`Cc1cc(COC(=O)N2CCc3c(ncnc3NCC34CC5CC(CC(C5)C3)C4)C2)nn1C` [Compound 347]: the inhibition at 0.1 µM lay within 50 to 75%.

For `O=C(OCc1cnccn1)N1CCc2c(ncnc2NCC23CC4CC(CC(C4)C2)C3)C1` [Compound 348], the inhibition at 0.1 µM was 25 to 50%.

As to `O=C(OCc1cncs1)N1CCc2c(ncnc2NCC23CC4CC(CC(C4)C2)C3)C1` [Compound 349], the inhibition at 0.1 µM was in the range of 0 to 25%.

In the case of `O=C(c1cccnc1)N1CCc2c(ncnc2NCC23CC4CC(CC(O)(C4)C2)C3)C1` [Compound 350, {4-[(3-Hydroxy-adamantan-1-ylmethyl)-amino]-5,8-dihydro-6H-pyrido[3,4-d]pyrimidin-7-yl}-pyridin-3-yl-methanone], the inhibition at 0.1 µM fell in the range of 25 to 50%.

Turning to `CC(C)[C@H](NC(=O)OC(C)(C)C)C(=O)N1CCc2c(ncnc2NCC23CC4CC(CC(C4)C2)C3)C1` [Compound 351], the inhibition at 0.1 µM is more than 75%.

The same assay, now with this note: P2X7; at 0.03 μM (asterisk symbols); read-out: IL-1β % inhib @ 0.3 μM or @ 0.03 μM.
For the compound `CC(C)(C)OC(=O)NCC(=O)N1CCc2c(ncnc2NCC(O)C23CC4CC(CC(C4)C2)C3)C1` (stereo not drawn) [Compound 707, {2-[4-(2-Adamantan-1-yl-2-hydroxy-ethylamino)-5,8-dihydro-6H-pyrido[3,4d]pyrimidin-7-yl]-2-oxo-ethyl}-carbamic acid tert-butyl ester], the inhibition at 0.03 µM lay within 50 to 75%.

Take `C[C@H](NC(=O)OC(C)(C)C)C(=O)N1CCc2c(ncnc2NCC(O)C23CC4CC(CC(C4)C2)C3)C1` (stereo partly drawn) [Compound 708, {(S)-2-[4-(2-Adamantan-1-yl-2-hydroxy-ethylamino)-5,8-dihydro-6H-pyrido[3,4-d]pyrimidin-7-yl]-1-methyl-2-oxo-ethyl}-carbamic acid tert-butyl ester]: the inhibition at 0.03 µM lay within 50 to 75%.

Consider `CC(C)(C)OC(=O)N[C@@H](Cc1ccccc1)C(=O)N1CCc2c(ncnc2NCC(O)C23CC4CC(CC(C4)C2)C3)C1` (stereo partly drawn) [Compound 709, {(S)-2-[4-(2-Adamantan-1-yl-2-hydroxy-ethylamino)-5,8-dihydro-6H-pyrido[3,4-d]pyrimidin-7-yl]-1-benzyl-2-oxo-ethyl}-carbamic acid tert-butyl ester], for which the inhibition at 0.03 µM lay in the range of 0 to 25%.

Take `C[C@@H](NC(=O)OC(C)(C)C)C(=O)N1CCc2c(ncnc2NCC(O)C23CC4CC(CC(C4)C2)C3)C1` (stereo partly drawn) [Compound 710, {(R)-2-[4-(2-Adamantan-1-yl-2-hydroxy-ethylamino)-5,8-dihydro-6H-pyrido[3,4-d]pyrimidin-7-yl]-1-methyl-2-oxo-ethyl}-carbamic acid tert-butyl ester]: the inhibition at 0.03 µM was in the range of 0 to 25%.

With `CC(C)(C)OC(=O)N[C@H](Cc1ccccc1)C(=O)N1CCc2c(ncnc2NCC(O)C23CC4CC(CC(C4)C2)C3)C1` (stereo partly drawn) [Compound 711, {(R)-2-[4-(2-Adamantan-1-yl-2-hydroxy-ethylamino)-5,8-dihydro-6H-pyrido[3,4-d]pyrimidin-7-yl]-1-benzyl-2-oxo-ethyl}-carbamic acid tert-butyl ester], the inhibition at 0.03 µM fell in the range of 0 to 25%.

Consider `C[C@H](N)C(=O)N1CCc2c(ncnc2NCC(O)C23CC4CC(CC(C4)C2)C3)C1` (stereo partly drawn) [Compound 713, (S)-1-[4-(2-Adamantan-1-yl-2-hydroxy-ethylamino)-5,8-dihydro-6H-pyrido[3,4-d]pyrimidin-7-yl]-2-amino-propan-1-one], for which the inhibition at 0.03 µM was in the range of 0 to 25%.
